Results on eight molecules are retold here after patent publication US20070248954A1, “Primers for Use in Detecting Beta-Lactamases” (Creighton University, priority 2003, published 2007).

Data set [1] has as its system Total (n = 175) clinical strains producing extended-spectrum β-lactamases. Description: ESBL screening of clinical strains. Type of data set: cell-based, E. coli, K. pneumoniae. The conditions noted are these: drug 1 μg/ml. The method, then: (§1) A total of 175 isolates representing E. coli (n=168), K. pneumoniae (n=7) were studied. Minimum inhibitory concentrations (MICs) to the following drugs were determined by Vitek (Vitek AMS; bioMérieux Vitek 5 Systems Inc., Hazelwood, Mo.); piperacillin (PIP), piperacillin/tazobactam (TZP), cefpodoxime (CPD), cefotaxime (CTX), ceftazidime (CAZ). The quality control strains used for this study were E. coli ATCC 25922, E. coli 35218, Pseudomonas aeruginosa ATCC 27853, Staphlylococcus aureus ATCC 29213, and K. pneumoniae ATCC 700603. Throughout this study, results were interpreted using National Committee for Clinical Laboratory Standards (NCCLS) criteria for broth dilution.
(§2) The presence of ESBLs was evaluated in both the control strains and the recent clinical isolates. Screening was performed with Vitek (Vitek AMS; bioMerieux Vitek Systems, Inc., Hazelwood, Mo.) using 1 μg/ml CPD, CAZ, and CTX. Screening and disk confirmation tests using CTX (30 μg) and CAZ (30 μg) disks in combination with 10 μg clavulanate (CLA) were performed and interpreted using NCCLS criteria for ESBL screening and disk confirmation tests. Disks for_ESBL confirmation tests were obtained from Oxoid Inc. (Nepean, Ontario, Canada). K. pneumoniae ATCC 700603 and E. coli ATCC 25922 were used as positive and negative controls, respectively.

For the next data set, the system named is ESBL-producing strains. The conditions noted are these: drug used as an initial screen; cited from earlier work.
Data set [2] has as its system E. coli (n = 51), PCR for blaCTXM genes Negative. Put plainly: ESBL screening of clinical strains. Type of data set: cell-based. The note with it: drug 1 μg/ml. The method, then: as §1, §2
In data set [3] the test system is K. pneumoniae (n = 5), PCR for blaCTXM genes Negative. Put plainly: ESBL screening of clinical strains. Type of data set: cell-based. The note with it: drug 1 μg/ml. The method, then: as §1, §2
Data set [4] concerns E. coli (n = 93), Positive for CTX-M-1V group. Description: ESBL screening of clinical strains. The note with it: drug 1 μg/ml. The format is cell-based. How it is done: as §1, §2
The test system of data set [5] is K. pneumoniae (n = 2), Positive for CTX-M-1V group. Description: ESBL screening of clinical strains. The conditions noted are these: drug 1 μg/ml. The format is cell-based. How it is done: as §1, §2
For data set [6], the system named is E. coli (n = 24), Positive for CTX-M-1 group. Description: ESBL screening of clinical strains. The note with it: drug 1 μg/ml. Type of data set: cell-based. How it is done:
as §1, §2

Data set [7] concerns Twenty two isolates representing E. coli (Ec), Citrobacter freundii (Cf) and C. koseri (Ck). Description: MICs of the 22 isolates of Example 1. The format is cell-based. The conditions noted are these: read-out: MICs; all 22 isolates (E. coli, C. freundii, C. koseri). How it is done: Twenty two isolates representing E. coli (Ec), Citrobacter freundii (Cf) and C. koseri (Ck) were studied. All of these strains had MICs of greater than (>) 32 micrograms per milliliter […] of cefotaxime, >16 mg/ml of cefepime, and ranged between 1 to 8 mg/ml for ceftazidime. Dendrogram analysis of CTX-M genes deposited in GenBank was performed, and based on these analyses, known CTX-M-genes were divided into four families. Based on these families, four sets of family-specific primers were designed. Specificity of the primers was tested on all 22 of the isolates.

Data set [8] concerns DNA template prepared from control strains known to produce specific CTX-M β-lactamases or ESBLs other than CTX-M β-lactamases. Description: PCR specificity test of designed primers on control strains. The note with it: for amplification with the rest of the control strains: DNA template from all other control strains in Table 1; for size of single amplified product: DNA template from the control strains of the primer set's own group. The source says:
Once the primers are designed, their specificity can be tested using the following method. Depending on the target nucleic acid of clinical interest, a nucleic acid is isolated from a bacterial control strain known to express or contain the resistance gene. This control strain, as used herein, refers to a “positive control” nucleic acid (typically, DNA). Additionally, a “negative control” nucleic acid (typically, DNA) can be isolated from one or more bacterial strains known to express a resistance gene other than the target gene of interest. Using the polymerase chain reaction, the designed primers are employed in a detection method, as described above, and used in the positive and negative control samples and in at least one test sample suspected of containing the resistance gene of interest. The positive and negative controls provide an effective and qualitative (or grossly quantitative) means by which to establish the presence or the absence of the gene of interest of test clinical samples. It should be recognized that with a small percentage of primer pairs, possible cross-reactivity with other β-lactamase genes might be observed. However, the size and/or intensity of any cross-reactive amplified product will be considerably different and can therefore be readily evaluated and dismissed as a negative result.
Polymerase Chain Reaction (PCR) amplifications were carried out on a Thermal Cycler 9600 instrument (Applied Biosystems, Norwalk, Conn.) as indicated in Example 1, with the primers, the size of the expected amplification product, and annealing temperatures used for the PCR as listed in Table 1. Magnesium chloride concentrations were 1.5 mM for all PCR reactions.
The designed primers were tested for specificity in separate PCR reactions using DNA template prepared from control strains known to produce specific CTX-M β-lactamases or strains producing ESBLs other than CTX-M β-lactamases (Tables 1 and 2, FIG. 3). […] Group II primers amplified a single 351 bp fragment when DNA template was prepared from control strains Rio-4, 34, and CT1.
Group IV primers amplified a 474 bp product from DNA prepared from strains 785D, EC984167, CF1, Rio-6, BM4493, ILT-2, and ILT-3. […] An isolate producing CTX-M-25 was requested but not obtained. Therefore, we were unable to examine the ability of the Group III primer set to amplify blaCTX-M-25.

≈ marks a conversion by molar mass, not a printed value.

On to `CC(C)(O/N=C(\C(=O)N[C@@H]1C(=O)N2C(C(=O)[O-])=C(C[n+]3ccccc3)CS[C@H]12)c1csc(N)n1)C(=O)O` [CAZ, ceftazidime], for which the “Screening, No positive” value in [1] is 151; in [2] it was 51; in data set [3], 5; in data set [4], 71; in data set [5] it was 0; in [6], 24. Moreover, the “Screening, No positive (%)” value in [1] is “(86%)”; in [2] it was “(100%)”; in data set [3], “(100%)”; in data set [4] it was “(76%)”; in data set [5] it was “(0%)”; in data set [6], “(100%)”. Moreover, the “ESBL-producing strains not detected” value in the data set with ESBL-producing strains is recorded as “about 14%”. The MIC in [7] is 1 to 8 µg/mL (≈ 1.83 to 14.6 µM).

On to `COCC1=C(C(=O)O)N2C(=O)[C@@H](NC(=O)/C(=N\OC)c3csc(N)n3)[C@H]2SC1` [CPD, cefpodoxime], for which the “Screening, No positive” value in data set [1] was 175; in data set [2] it was 51; in data set [3], 5; in data set [4], 93; in data set [5] it was 2; in data set [6], 24. For the same molecule, the “Screening, No positive (%)” value in data set [1], in [2], in data set [3], in data set [4], in data set [5] and in data set [6] was “(100%)” in each case.

`CO/N=C(\C(=O)N[C@@H]1C(=O)N2C(C(=O)O)=C(COC(C)=O)CS[C@H]12)c1csc(N)n1` [CTX, cefotaxime]: the “Screening, No positive” value in [1] is reported as 171; in [2], 48; in [3] it was 4; in data set [4], 93; in [5], 2; in data set [6], 24. In addition, the “Screening, No positive (%)” value was “(98%)” in data set [1]; “(94%)” in [2]; “(80%)” in [3]; “(100%)” in [4]; “(100%)” in data set [5]; “(100%)” in [6]. The MIC in [7] is > 32 µg/mL.

As to `CO/N=C(\C(=O)N[C@@H]1C(=O)N2C(C(=O)[O-])=C(C[N+]3(C)CCCC3)CS[C@H]12)c1csc(N)n1` [cefepime], the MIC in [7] is > 16 µg/mL.

Take “CTX-M-I group: primer pair of SEQ ID NO:1 and SEQ ID NO:2, Group 1 CTX-M β-lactamases, 499 base pair amplicon (DNA 1 GACGATGTCACTGGCTGAGC; DNA 2 AGCCGCCGACGCTAATACA; PCR primers, chemistry not given here, further chemistry not given here)”: in data set [8], the “amplification with the rest of the control strains” value (“amplification with the rest” for short) is recorded as “No amplified product” and the “size of single amplified product” value is 499 bp.

In the case of “CTX-M-II group: primer pair of SEQ ID NO:3 and SEQ ID NO:4, Group 2 CTX-M β-lactamases, 351 base pair amplicon (DNA 1 GCGACCTGGTTAACTACAATCC; DNA 2 CGGTAGTATTGCCCTTAAGCC; PCR primers, chemistry not given here, further chemistry not given here)”, in data set [8], the “amplification with the rest” value is “no amplification product” and the “size of single amplified product” value worked out at 351 bp.

With “CTX-M-III group: primer pair of SEQ ID NO:7 and SEQ ID NO:8, Group 3 or Group 5 CTX-M β-lactamases, 307 base pair amplicon (DNA 1 CGCTTTGCCATGTGCAGCACC; DNA 2 GCTCAGTACGATCGAGCC; PCR primers, chemistry not given here, further chemistry not given here)”, the “control strains whose DNA was amplified” value in [8] (all control strains of Table 1) was “amplification of DNA prepared from only one strain, Rio-3”.

In the case of “CTX-M-VI group: primer pair of SEQ ID NO:5 and SEQ ID NO:6, Group 4 CTX-M β-lactamases, 474 base pair amplicon (DNA 1 GCTGGAGAAAAGCAGCGGAG; DNA 2 GTAAGCTGACGCAACGTCTG; PCR primers, chemistry not given here, further chemistry not given here)”, in data set [8], the “amplification with the rest” value is reported as “no amplification of DNA” and the “size of single amplified product” value amounted to 474 bp.
